US10952992B2, “Methods of treating intraocular pressure with activators of Tie-2” (Aerpio Pharmaceuticals, Inc., priority 2015, dated 2021)
Where “and” joins values, the source holds several entries; their conditions need not be identical. Identical values can stand only once. Counter-ions that a name gives are not always drawn.

Assay: Example 2 iris, retina, choroid and cornea tissue concentrations
Format: in vivo, male New Zealand White rabbits
Conditions: for Average / Conc. (ng/g) OD / Conc. (ng/g) OS / Conc. (ng/mL) OD / Conc. (ng/mL) OS: sodium salt; for Average Peak Concentration, Choroid / Average Peak Concentration, Cornea / Average Peak Concentration, Iris / Average Peak Concentration, Retina: solution
Procedure: To measure the concentration of Compound 1 in plasma and ocular tissues following topical ocular, subcutaneous, and intravitreal administration, New Zealand White rabbits were administered Compound 1, and plasma and ocular samples were collected at pre-determined time points. Compound 1 formulations were prepared fresh on each day of dosing.
Ocular tissue samples from both eyes of each animal were collected and weights were recorded. Plasma and ocular tissue sample concentrations of Compound 1 were determined by LC-MS/MS.
Animals were anesthetized for ocular (topical) and intravitreal dosing following the 12IA7 IACUC protocol. Each rabbit received a bolus dose of test formulation either via topical ocular administration 3 times daily on Days 1 and 2 (at 0, 6, and 12 hours), and once on Day 3 (at 0 hours) into both eyes; via intravitreal administration into both eyes once on Day 1 (at 0 hours); or via subcutaneous administration 2 times daily on Days 1 and 2 (at 0 and 8 hours) and once daily on Day 3 (at 0 hours). Doses were given within an approximately 1 hour window each day where applicable.
On Day 1, for intravitreal administration, or on Day 3, for topical ocular and subcutaneous administration, at the appropriate ocular tissue collection time points, animals were euthanized and both eyes were enucleated immediately. Following enucleation, each eye was rinsed with phosphate-buffered saline. Ocular tissue samples from both eyes of each animal were collected at predetermined time points and weights were recorded. All the samples were frozen immediately on dry ice, and stored at −60° C. to −80° C. pending bioanalysis.
An LC-MS/MS method was developed for the determination of Compound 1 in rabbit aqueous tissues (plasma, aqueous and vitreous humor) and solid ocular tissue samples. A pre-study standard curve was analyzed to determine the specificity, range, and lower limit of quantitation of the method. Plasma and tissue homogenate study samples were extracted and analyzed. All the samples were treated identically to the standards.
One eight-point standard curve was used in each analytical batch. To be accepted, each batch must have had at least five of eight standards with accuracy within ±20% of nominal, except at the lower limit of quantification (LLOQ), where ±25% was acceptable.

[1] = Choroid, 0.5 hr, subcutaneous 5 mg/kg/dose (Group 2)
[2] = Choroid, 1 hr, subcutaneous 5 mg/kg/dose (Group 2)
[3] = Choroid, 1 hr, topical ocular 1.2 mg/eye (Group 1)
[4] = Choroid, 2 hr, topical ocular 1.2 mg/eye (Group 1)
[5] = Choroid, 4 hr, subcutaneous 5 mg/kg/dose (Group 2)
[6] = Choroid, 4 hr, topical ocular 1.2 mg/eye (Group 1)
[7] = Cornea, 0.5 hr, subcutaneous 5 mg/kg/dose (Group 2)
[8] = Cornea, 0.5 hr, topical ocular 1.2 mg/eye (Group 1)
[9] = Cornea, 1 hr, subcutaneous 5 mg/kg/dose (Group 2)
[10] = Cornea, 1 hr, topical ocular 1.2 mg/eye (Group 1)
[11] = Cornea, 2 hr, subcutaneous 5 mg/kg/dose (Group 2)
[12] = Cornea, 4 hr, subcutaneous 5 mg/kg/dose (Group 2)
[13] = Cornea, 4 hr, topical ocular 1.2 mg/eye (Group 1)
[14] = Group 1: topical ocular 0.70 mg/kg/dose
[15] = Group 2: subcutaneous 5 mg/kg/dose
[16] = Group 4: intravitreal 1.55 mg/kg/dose
[17] = Iris, 0.5 hr, subcutaneous 5 mg/kg/dose (Group 2)
[18] = Iris, 0.5 hr, topical ocular 1.2 mg/eye (Group 1)
[19] = Iris, 1 hr, subcutaneous 5 mg/kg/dose (Group 2)
[20] = Iris, 4 hr, subcutaneous 5 mg/kg/dose (Group 2)
[21] = Iris, 4 hr, topical ocular 1.2 mg/eye (Group 1)
[22] = Retina, 0.5 hr, subcutaneous 5 mg/kg/dose (Group 2)
[23] = Retina, 0.5 hr, topical ocular 1.2 mg/eye (Group 1)

Average [1]: 266 ng/g
Conc. (ng/g) OD [1]: 264 ng/g and 282 ng/g
Conc. (ng/g) OS [1]: 282 ng/g and 235 ng/g
Conc. (ng/mL) OD [1]: 24.0 ng/mL and 25.6 ng/mL
Conc. (ng/mL) OS [1]: 25.6 ng/mL and 21.4 ng/mL
Average (Choroid, 0.5 hr, topical ocular 1.2 mg/eye (Group 1)): 57.7 ng/g
Average [2]: 200 ng/g
Conc. (ng/g) OD [2]: 320 ng/g and 211 ng/g
Conc. (ng/g) OS [2]: 144 ng/g and 125 ng/g
Conc. (ng/mL) OD [2]: 29.1 ng/mL and 19.2 ng/mL
Conc. (ng/mL) OS [2]: 13.1 ng/mL and 11.4 ng/mL
Average [3]: 32.2 ng/g
Conc. (ng/g) OD [3]: 61.2 ng/g and 31.8 ng/g
Conc. (ng/g) OS [3]: 16.5 ng/g and 19.5 ng/g
Conc. (ng/mL) OD [3]: 5.56 ng/mL and 2.89 ng/mL
Conc. (ng/mL) OS [3]: 1.50 ng/mL and 1.77 ng/mL
Average (Choroid, 2 hr, subcutaneous 5 mg/kg/dose (Group 2)): 68.8 ng/g
Average [4]: 59.2 ng/g
Conc. (ng/g) OS [4]: 43.9 ng/g and 64.5 ng/g
Conc. (ng/mL) OS [4]: 3.99 ng/mL and 5.86 ng/mL
Average [5]: 15.5 ng/g
Conc. (ng/g) OD [5]: 18.7 ng/g and 16.5 ng/g
Conc. (ng/g) OS [5]: 13.4 ng/g
Conc. (ng/mL) OD [5]: 1.70 ng/mL and 1.50 ng/mL
Conc. (ng/mL) OS [5]: 1.22 ng/mL
Average [6]: 165 ng/g
Conc. (ng/g) OD [6]: 27.8 ng/g and 52.1 ng/g
Conc. (ng/g) OS [6]: 81.1 ng/g
Conc. (ng/mL) OD [6]: 2.53 ng/mL and 4.74 ng/mL
Average [7]: 19.4 ng/g
Conc. (ng/g) OS [7]: 27.1 ng/g and 21.3 ng/g
Conc. (ng/mL) OS [7]: 2.46 ng/mL and 1.94 ng/mL
Average [8]: 1015 ng/g
Conc. (ng/g) OD [8]: 240 ng/g and 370 ng/g
Conc. (ng/g) OS [8]: 427 ng/g
Conc. (ng/mL) OD [8]: 21.8 ng/mL and 33.6 ng/mL
Average [9]: 31.1 ng/g
Conc. (ng/g) OD [9]: 26.1 ng/g and 23.4 ng/g
Conc. (ng/g) OS [9]: 25.3 ng/g
Conc. (ng/mL) OD [9]: 2.37 ng/mL and 2.13 ng/mL
Conc. (ng/mL) OS [9]: 4.52 ng/mL and 2.30 ng/mL
Average [10]: 548 ng/g
Conc. (ng/g) OS [10]: 482 ng/g and 532 ng/g
Conc. (ng/mL) OS [10]: 43.8 ng/mL and 48.4 ng/mL
Average [11]: 9.45 ng/g
Conc. (ng/g) OD [11]: 11.7 ng/g
Conc. (ng/g) OS [11]: 11.0 ng/g
Average (Cornea, 2 hr, topical ocular 1.2 mg/eye (Group 1)): 1073 ng/g
Average [12]: 10.1 ng/g
Conc. (ng/g) OD [12]: 8.27 ng/g and 9.60 ng/g
Conc. (ng/g) OS [12]: 8.62 ng/g and 13.9 ng/g
Conc. (ng/mL) OD [12]: 0.752 ng/mL and 0.873 ng/mL
Conc. (ng/mL) OS [12]: 0.784 ng/mL and 1.26 ng/mL
Average [13]: 534 ng/g
Conc. (ng/g) OD [13]: 493 ng/g and 362 ng/g
Conc. (ng/mL) OD [13]: 44.8 ng/mL and 32.9 ng/mL
Average Peak Concentration, Choroid [14]: 57.7 ng/g
Average Peak Concentration, Cornea [14]: 1015 ng/g
Average Peak Concentration, Iris [14]: 24.3 ng/g
Average Peak Concentration, Retina [14]: 25.6 ng/g
Average Peak Concentration, Choroid [15]: 266 ng/g
Average Peak Concentration, Cornea [15]: 19.4 ng/g
Average Peak Concentration, Iris [15]: 459 ng/g
Average Peak Concentration, Retina [15]: 40.5 ng/g
Average Peak Concentration, Choroid [16]: 947375 ng/g
Average Peak Concentration, Cornea [16]: 71445 ng/g
Average Peak Concentration, Iris [16]: 351725 ng/g
Average Peak Concentration, Retina [16]: 774400 ng/g
Average [17]: 459 ng/g
Conc. (ng/g) OD [17]: 305 ng/g and 454 ng/g
Conc. (ng/mL) OD [17]: 27.7 ng/mL and 41.3 ng/mL
Average [18]: 24.3 ng/g
Conc. (ng/g) OD [18]: 28.1 ng/g and 18.7 ng/g
Conc. (ng/g) OS [18]: 17.8 ng/g and 32.5 ng/g
Conc. (ng/mL) OD [18]: 2.55 ng/mL and 1.7 ng/mL
Conc. (ng/mL) OS [18]: 1.62 ng/mL and 2.95 ng/mL
Average [19]: 94.7 ng/g
Conc. (ng/g) OD [19]: 125 ng/g and 99.2 ng/g
Conc. (ng/g) OS [19]: 97.6 ng/g and 56.4 ng/g
Conc. (ng/mL) OD [19]: 11.4 ng/mL and 9.02 ng/mL
Conc. (ng/mL) OS [19]: 8.87 ng/mL and 5.13 ng/mL
Average (Iris, 1 hr, topical ocular 1.2 mg/eye (Group 1)): 55.2 ng/g
Average (Iris, 2 hr, subcutaneous 5 mg/kg/dose (Group 2)): 29.7 ng/g
Average (Iris, 2 hr, topical ocular 1.2 mg/eye (Group 1)): 51.9 ng/g
Average [20]: 30.4 ng/g
Conc. (ng/g) OD [20]: 33.8 ng/g
Conc. (ng/g) OS [20]: 34.1 ng/g
Conc. (ng/mL) OD [20]: 2.12 ng/mL and 3.07 ng/mL
Average [21]: 261 ng/g
Conc. (ng/g) OD [21]: 32.7 ng/g and 27.9 ng/g
Conc. (ng/g) OS [21]: 30.7 ng/g
Conc. (ng/mL) OD [21]: 2.97 ng/mL and 2.54 ng/mL
Average [22]: 40.5 ng/g
Conc. (ng/g) OD [22]: 30.5 ng/g and 34.9 ng/g
Conc. (ng/g) OS [22]: 48.0 ng/g and 48.7 ng/g
Conc. (ng/mL) OD [22]: 2.77 ng/mL and 3.17 ng/mL
Conc. (ng/mL) OS [22]: 4.36 ng/mL and 4.43 ng/mL
Average [23]: 25.6 ng/g
Conc. (ng/g) OS [23]: 33.7 ng/g and 33.1 ng/g
Conc. (ng/mL) OS [23]: 3.06 ng/mL and 3.01 ng/mL
Structure (SMILES): COC(=O)N[C@@H](Cc1ccccc1)C(=O)N[C@@H](Cc1ccc(NS(=O)(=O)O)cc1)c1csc(-c2cccs2)n1 [Compound 1 sodium salt]
